Reference: patent US5591758A, “Organic nitrates, processes for their preparation and their use in the treatment of cardiovascular diseases” (Laboratoires Hoechst, SA, priority 1991, dated 1997)
Where “and” joins values, the source holds several entries; their conditions need not be identical. Identical values can stand only once.

Test system: anaesthetised dogs
Assay: Tachyphylaxis model on anaesthetised dogs (repeated i.d. administration)
Format: in vivo, dogs (labrador/harrier cross)
Parameters: Δdp/dt average / ΔBPs / ΔBPd / ΔLVEDP / ΔHR / ΔBPs average / ΔBPd average / ΔLVEDP average / ΔHR average: unit not given here
Conditions: for ΔBPd / ΔBPs / ΔHR / ΔLVEDP / Δdp/dt: single dog
Procedure: Comparison with isosorbide mononitrate (IS-5-MN).
The product (46) is tested in a tachyphylaxis model on anaesthetised dogs. IS-5-MN is used as reference substance.
8 dogs of each sex, weighing between 16 and 24 kg, are used. These dogs are the progeny of a labrador/harrier cross. Anaesthesia is induced with the aid of sodium pentobarbital (45 mg/kg i.v.) and maintained by i.v. perfusion (flow rate: 8 mg/kg/h). The animals are ventilated, with the aid of a "Bird Mark 7" respirator, using ambient air, and catheterised. […] The arterial blood gases are measured at regular intervals.
IS-5-MN is also dissolved in water and given i.d. in a dosage of 5 mg/kg in a volume of 10 ml/animal.
Three hours (in the case of IS-5-MN) or four hours (in the case of (46)) after the first administration, the compounds are readministered in the same dosage and by the same route. The haemodynamic parameter chosen for the study of the tachyphylaxis is the systolic blood pressure (BPs), insofar as this parameter is very sensitive to the administration of the compounds.

[1] = 1st administration, 5 mg/kg i.d., 5 min
[2] = 1st administration, 5 mg/kg i.d., 10 min
[3] = 1st administration, 5 mg/kg i.d., 15 min
[4] = 1st administration, 5 mg/kg i.d., 30 min
[5] = 1st administration, 5 mg/kg i.d., 60 min
[6] = 1st administration, 5 mg/kg i.d., 120 min
[7] = 1st administration, 5 mg/kg i.d., 180 min
[8] = i.d., IS-5-MN 5 mg/kg, (46) 0.75 mg/kg
[9] = n = 4, 2nd administration, 5 mg/kg i.d., 5 min
[10] = n = 4, 2nd administration, 5 mg/kg i.d., 10 min
[11] = n = 4, 2nd administration, 5 mg/kg i.d., 15 min
[12] = n = 4, 2nd administration, 5 mg/kg i.d., 30 min
[13] = n = 4, 2nd administration, 5 mg/kg i.d., 60 min
[14] = n = 4, 2nd administration, 5 mg/kg i.d., 120 min
[15] = n = 4, 2nd administration, 5 mg/kg i.d., 180 min
[16] = 1st administration, 5 mg/kg i.d., 5 min, 5 mg/kg
[17] = 1st administration, 5 mg/kg i.d., 10 min, 5 mg/kg
[18] = 1st administration, 5 mg/kg i.d., 15 min, 5 mg/kg
[19] = 1st administration, 5 mg/kg i.d., 30 min, 5 mg/kg
[20] = 1st administration, 5 mg/kg i.d., 60 min, 5 mg/kg
[21] = 1st administration, 5 mg/kg i.d., 120 min, 5 mg/kg
[22] = 1st administration, 5 mg/kg i.d., 180 min, 5 mg/kg
[23] = 2nd administration, 5 mg/kg i.d., 5 min, 5 mg/kg
[24] = 2nd administration, 5 mg/kg i.d., 10 min, 5 mg/kg
[25] = 2nd administration, 5 mg/kg i.d., 15 min, 5 mg/kg
[26] = 2nd administration, 5 mg/kg i.d., 30 min, 5 mg/kg
[27] = 2nd administration, 5 mg/kg i.d., 60 min, 5 mg/kg
[28] = 2nd administration, 5 mg/kg i.d., 120 min, 5 mg/kg
[29] = 2nd administration, 5 mg/kg i.d., 180 min, 5 mg/kg

O=[N+]([O-])O[C@@H]1CO[C@H]2[C@@H]1OC[C@@H]2O [IS-5-MN, isosorbide 5-mononitrate, reference compound] was tested, and the “fall in the BPs, first administration, on average” value (5 mg/kg i.d.) was -30 mmHg, the “return of BP to control value after second administration” value (5 mg/kg i.d.) was “rapid return to the control value” and the ΔBPd average [1] was -21. For the same compound, the ΔBPs average [1] was -30, the ΔLVEDP average [1] was -3 and the Δdp/dt average [1] was -175. It also gave a ΔBPd average [2] of -18, a ΔBPs average [2] of -26 and a ΔLVEDP average [2] of -3. It also gave a Δdp/dt average [2] of -175, a ΔBPd average [3] of -16 and a ΔBPs average [3] of -25. The ΔLVEDP average [3] was -3, the Δdp/dt average [3] was -150 and the ΔBPd average [4] was -13. The ΔBPs average [4] was -24, the ΔLVEDP average [4] was -3 and the Δdp/dt average [4] was -175. The ΔBPd average [5] was -12, the ΔBPs average [5] was -23 and the ΔLVEDP average [5] was -1. It also gave a Δdp/dt average [5] of -200, a ΔBPd average [6] of 3 and a ΔBPs average [6] of -5. It also gave a ΔLVEDP average [6] of -2, a Δdp/dt average [6] of 75 and a ΔBPd average [7] of 3. It also gave a ΔBPs average [7] of -4, a ΔLVEDP average [7] of -2 and a Δdp/dt average [7] of 100. The “development of tachyphylaxis after repeated administration” value (dogs, two i.d. administrations) was “tachyphylaxis after repeated administration”, the “maximum fall in the BP after second administration” value [8] was -19 mmHg and the “time of maximum effect on BPs after first administration” value [8] was 5 min. For the same compound, the “time of maximum fall in the BP after second administration” value [8] was 5 min, the ΔBPd average [9] was -13 and the ΔBPs average [9] was -19. It also gave a ΔLVEDP average [9] of -1, a Δdp/dt average [9] of -125 and a ΔBPd average [10] of -11. It also gave a ΔBPs average [10] of -15, a ΔLVEDP average [10] of -2 and a Δdp/dt average [10] of -75. It also gave a ΔBPd average [11] of -9, a ΔBPs average [11] of -13 and a ΔLVEDP average [11] of -1. The Δdp/dt average [11] was -100, the ΔBPd average [12] was -5 and the ΔBPs average [12] was -9. For the same compound, the ΔLVEDP average [12] was -1, the Δdp/dt average [12] was 0 and the ΔBPd average [13] was -4. For the same compound, the ΔBPs average [13] was -7, the ΔLVEDP average [13] was -2 and the Δdp/dt average [13] was 50. It also gave a ΔBPd average [14] of -5, a ΔBPs average [14] of -6 and a ΔLVEDP average [14] of -1. For the same compound, the Δdp/dt average [14] was 100, the ΔBPd average [15] was -1 and the ΔBPs average [15] was -4. For the same compound, the ΔLVEDP average [15] was -2, the Δdp/dt average [15] was 175 and the ΔBPd [16] was -15 and -25 and -20. For the same compound, the ΔBPs [16] was -25 and -35 and -30, the ΔHR [16] was 0 and 5 and the ΔLVEDP [16] was -3 and -4 and -2. For the same compound, the Δdp/dt [16] was -200 and -100 and -300, the ΔBPd [17] was -15 and -20 and the ΔBPs [17] was -25 and -30. The ΔHR [17] was 0 and 5, the ΔLVEDP [17] was -3 and -5 and -1 and the Δdp/dt [17] was -300 and 0 and -100. The ΔBPd [18] was -15 and -10 and -20, the ΔBPs [18] was -25 and -20 and -30 and the ΔHR [18] was -5 and 5 and 0. The ΔLVEDP [18] was -3 and -5 and -1, the Δdp/dt [18] was -200 and 0 and -100 and -300 and the ΔBPd [19] was -15 and -10. For the same compound, the ΔBPs [19] was -35 and -20 and -25 and -15, the ΔHR [19] was -15 and 5 and 0 and the ΔLVEDP [19] was -1 and -5 and -3. For the same compound, the Δdp/dt [19] was -300 and 0 and -100, the ΔBPd [20] was -20 and 0 and -15 and the ΔBPs [20] was -35 and -10 and -25 and -20. For the same compound, the ΔHR [20] was -20 and 10 and -5 and 0, the ΔLVEDP [20] was 0 and -2 and -3 and -1 and the Δdp/dt [20] was -400 and 0 and -100 and -300. For the same compound, the ΔBPd [21] was 10 and 0 and -5 and 5, the ΔBPs [21] was 0 and -15 and -5 and the ΔHR [21] was 0 and 10 and 5. The ΔLVEDP [21] was -1 and -3 and -2, the Δdp/dt [21] was 400 and 0 and -100 and the Δdp/dt [7] was 100. For the same compound, the ΔBPd [22] was 5 and 0 and -5 and 10, the ΔBPs [22] was -5 and 0 and -15 and 5 and the ΔHR [22] was -5 and 10 and 5. The ΔLVEDP [22] was -3 and -1 and -5 and 0, the ΔBPd [23] was -5 and -15 and the ΔBPs [23] was -15 and -20. For the same compound, the ΔHR [23] was 0 and 5, the ΔLVEDP [23] was -2 and 0 and the Δdp/dt [23] was -200 and -100. The ΔBPs (2nd administration, 5 mg/kg i.d., 10 min) was -15, the ΔBPd [24] was -5 and -15 and the ΔHR [24] was 0 and 5. The ΔLVEDP [24] was -2 and -1, the Δdp/dt [24] was -200 and 0 and -100 and the Δdp/dt (2nd administration, 5 mg/kg i.d., 15 min) was -100. The ΔBPd [25] was -5 and -15 and -10, the ΔBPs [25] was -15 and -10 and the ΔHR [25] was -5 and 0 and 5. For the same compound, the ΔLVEDP [25] was -2 and -1 and 0, the Δdp/dt (2nd administration, 5 mg/kg i.d., 30 min) was 0 and the ΔBPd [26] was 0 and -10 and -5. The ΔBPs [26] was -10 and -5, the ΔHR [26] was 0 and 5 and the ΔLVEDP [26] was -2 and -1 and 0. The ΔBPd [27] was 5 and -10 and 0, the ΔBPs [27] was 0 and -10 and -15 and -5 and the ΔHR [27] was 5 and 0 and -5. For the same compound, the ΔLVEDP [27] was -2 and -3 and -1, the Δdp/dt [27] was 100 and 0 and -100 and 200 and the ΔBPd [28] was 0 and -15 and -5. For the same compound, the ΔBPs [28] was -5 and -15 and 0, the ΔHR [28] was 5 and -5 and 10 and the ΔLVEDP [28] was -2 and 1. For the same compound, the Δdp/dt [28] was 0 and 100 and 300, the ΔBPd [29] was 0 and -5 and the ΔBPs [29] was -5 and 0. For the same compound, the ΔHR [29] was 5 and 15 and 0, the ΔLVEDP [29] was -2 and -3 and -1 and the Δdp/dt [29] was 100 and 200 and 300.
